Data as given in patent US20120122797A1, “PEPTIDIC COMPOUND AND USE OF SAME” (KEIO UNIVERSITY, priority 2009, published 2012).
≈ marks a conversion by molar mass, not a printed value. Numbered stars: 1 amine (or outer) side, 2 acyl side, 3 side chain; on linkers, the order of the positions; unused ones are H or OH. Square brackets hold non-standard residues; d marks the D form. Peptide text beside a SMILES is read from it. * marks the point of attachment. ξ: configuration not given here. X1 = C[C@H]1C[C@@H](C2=N[C@](C)(C(=O)[*:2])CS2)N([*:1])C1; ξNMeTyr(3-Br) = CNC(Cc1ccc(O)c(Br)c1)C(=O)O; NMeF = CN[C@@H](Cc1ccccc1)C(=O)O; Piv = CC(C)(C)C(=O)*; X2 = CCC(=O)C1CCCN1*

Columns and labels:
Assay type in all cases: cell-based
[1] = test system: phosphorylation of PKD/PKC; assay: protein kinase inhibition: Western blot of phosphorylated PKD/PKC in PDGF-stimulated NRK cells; settings: treated 3 hours, PDGF stimulation, 10, 1 and 0.1 μM
Experimental: (§1) NRK cells were seeded in a 96-well plate, and cultured for 3 days. A sample solution was added thereto and treated for 3 hours, followed by PDGF stimulation. Electrophoretic samples were prepared to conduct Western blot using antibodies against phosphorylated signal transduction molecules (AKT, ERK, PKD, PLCγ1, and S6 ribosomal protein) and phosphotyrosine. The effect on the intracellular signal transduction from a PDGF receptor was evaluated. […] The eIF4E, 4E-BP-1, and histone H3 bands confirmed that equal amounts of proteins subjected to electrophoresis.
(§2) Bisebromoamide (1) was added in such a manner that the final concentration became 0.01, 0.1, 1, and 10 μM, in order to determine the presence or absence of inhibition, and the inhibition pattern thereof. The effective inhibitory concentration against each signal transduction molecule activity was investigated.

HeLa S3 cell = assay: growth inhibitory activity against HeLa S3 cell; settings: Homo sapiens
Source text: The present inventors conducted research on the derivatives of the compound to complete the present invention.
The cyanobacterium Lyngbya sp. collected in Okinawa Prefecture was extracted with MeOH, and partitioned between H2O and AcOEt. The resulting AcOEt layer was further partitioned between 90% MeOH and n-hexane. The 90% MeOH layer thus obtained was separated and purified with various chromatographies using the growth inhibitory activity against tumor cells as an index. As a result, Bisebromoamide (1), which is a novel peptide, was isolated.
The planar structure of the compound was primarily determined by various two-dimensional NMR spectral analyses. […] Subsequently, in order to determine the absolute configuration of Bisebromoamide (1) including eight chiral centers, acid hydrolysis was conducted using 9 M HCl. The resulting acid hydrolysate was fractionated by HPLC, obtaining fractions of Leu, N-Me-Tyr, 4-Me-Pro, N-Me-Phe, Opp, and that of a mixture of Ala and 2-methylcystine. […] Furthermore, 4-Me-Pro, Opp, Ala, and 2-methylcystine were subjected to derivatization using Marfey's reagent, and then analyzed by reversed phase HPLC. […] However, it also turned out that the Opp and 4-Me-Pro completely epimerized at a-position during the acid hydrolysis. Therefore, we reduced the ketone of Opp using NaBH4 before conducting the acid hydrolysis. […]

phosphorylation of AKT = assay: protein kinase inhibition: Western blot of phosphorylated AKT in PDGF-stimulated NRK cells; settings: treated 3 hours, PDGF stimulation, 10, 1 and 0.1 μM
Experimental: as §1, §2

phosphorylation of ERK = assay: protein kinase inhibition: Western blot of phosphorylated ERK in PDGF-stimulated NRK cells
Experimental: as §1, §2

[2] = test system: 39 types of human cancer cells; assay: growth inhibitory activity screening using 39 types of human cancer cells (sulforhodamine B colorimetric assay); settings: 48 h, 39 human cancer cell lines, cultured for 2 days, read-out: average GI50 value across all of the cell lines tested
Experimental: Bisebromoamide (1) is a strong cytotoxic substance containing a high degree of D-amino acids and unusual amino acids. In particular, compounds having a 4-Me-Pro, N-Me-3-bromo-Tyr, and N-pivalamide moiety linking to 4-methylthiazoline are very rare, and the 2-Opp unit is unprecedented in natural products. Bisebromoamide (1) was subjected to screening using 39 types of human cancer cells. […] The average GI50 value across all of the cell lines tested was 40 nM.
Cancer cells were seeded in a 96-well plate. A sample solution was added thereto on the following day, and cultured for 2 days. Cell growth was evaluated by sulforhodamine B colorimetric assay. The 39 total cancer cell lines that were tested included 7 lung cancer (Lu) lines, 6 stomach cancer (St) lines, 5 colon cancer (Co) lines, 6 brain neoplasm (CNS) lines, 5 breast cancer (Br) lines, 2 renal cancer (Re) lines, 2 prostatic cancer (xPg) lines, and 1 melanoma (Me) line. The effective concentration deviation of each cancer cell stock from the mean effective drug concentration of the 39 cancer cell lines measured was calculated and expressed as the fingerprint.

phosphorylation of PLCγ1 = assay: protein kinase inhibition: Western blot of phosphorylated PLCγ1 in PDGF-stimulated NRK cells; settings: treated 3 hours, PDGF stimulation, 10, 1 and 0.1 μM
Experimental: as §1, §2

[3] = test system: phosphorylation of S6 ribosomal protein (S6R); assay: protein kinase inhibition: Western blot of phosphorylated S6 ribosomal protein in PDGF-stimulated NRK cells; settings: treated 3 hours, PDGF stimulation, 10, 1 and 0.1 μM
Experimental: as §1, §2

cancer cell growth = assay: inhibitory activity of derivatives against cancer cell growth
Source text: The alcohol and hydrazone were examined for their inhibitory activities against cancer cell growth and phosphorylation of ERK.

Row | SMILES | effect on phosphorylation of PKD/PKC [1] | IC50 (HeLa S3 cell) | effect on phosphorylation of AKT (phosphorylation of AKT) | inhibition of phosphorylation of ERK (phosphorylation of ERK; NRK cells, treated 3 hours, PDGF stimulation, 10, 1 and 0.1 μM) | GI50 [2] | effect on phosphorylation of PLCγ1 (phosphorylation of PLCγ1) | effect on phosphorylation of S6 ribosomal protein (S6R) [3] | inhibitory activity against phosphorylation of ERK, compared with Bisebromoamide (1) (phosphorylation of ERK) | inhibitory activity against cancer cell growth, compared with Bisebromoamide (1) (cancer cell growth)
1 | CCC(=O)C1CCCN1C(=O)[C@H](Cc1ccccc1)N(C)C(=O)[C@@H](CC(C)C)NC(=O)[C@]1(C)CSC([C@@H]2C[C@H](C)CN2C(=O)C(Cc2ccc(O)c(Br)c2)N(C)C(=O)[C@H](C)NC(=O)C(C)(C)C)=N1 (stereo partly drawn) [Bisebromoamide (1), Bisebromoamide] (Piv-A[ξNMeTyr(3-Br)][X1][dL][NMeF]-X2) | no effect | 0.04 mg/L (≈ 0.0391 µM) | no effect | selectively inhibited | 0.04 µM | no effect | no effect | – | –
2 | CCO [alcohol] | – | – | – | – | – | – | – | Results similar to those for Bisebromoamide (1) | Results similar to those for Bisebromoamide (1)
